The values below come from patent US8569376B2, “Methods and compositions for reducing body fat and adipocytes” (Topokine Therapeutics, Inc., priority 2011, dated 2013).

Structures are written as SMILES. “Also recorded” adds a separate entry of the source. Marks after values point to notes of the source that are not given here.

Experiment [1] is described as follows: Randomized controlled trial in (db-/db-) mice, topical to flank: body weight change. It counts as in vivo, mouse. Conditions: 21-day study; for Absolute weight change / Relative weight change: 5 mM topical, 0.1 cc to flank daily. How it is done: (§1) A randomized controlled trial was conducted on (db-/db-) mice. Mice six weeks old were prospectively randomized into groups and assigned to the following treatment conditions (n=5 animals per group): [table] At the start of the study, hair on the right flank of each animal was clipped and depilated. Animals were kept in identical conditions and fed ab libitum. Animals were weighed daily. Following 21 consecutive days of treatment, samples of skin and adjacent fat were obtained from the treated flanks, fixed in formalin, and stained with hematoxylin and eosin for histologic examination.

Experiment [2] has as its system adipose tissue and adipocytes. Briefly: Randomized controlled trial in (db-/db-) mice: histologic examination of treated skin and subcutaneous fat. It counts as in vivo, mouse. Conditions: treated flank, after 21 days of 5 mM topical treatment. The procedure: as §1
The test system of experiment [3] is peroxisome proliferator-activated receptor-gamma (PPARγ), CCAAT-enhancer-binding protein α (C/EBPα), and lipoprotein lipase. Conditions: human preadipocytes; no statistical differences; cited from earlier work.
A further experiment relates to human preadipocytes. Conditions: human preadipocytes in primary cell culture; cited from earlier work.
The next experiment concerns dorsocervical fat pad. The experiment can be described thus: Randomized double-blind study in HIV lipodystrophy subjects, dorsocervical fat by US/CT. It is filed as in vivo. Conditions: human, e.g. 0.03% in transdermal vehicle once a day, e.g. after 3 months. The source says:
The following experiment describes a randomized, double-blind study in human subjects to test whether locally administered Tafluprost reduces fat in the dorsocervical fat pad of HIV-seropositive patients on antiretroviral therapy who are suffering from HIV lipodystrophy. Eligible subjects (for example, n=40) with HIV lipodystrophy and abnormal accumulation of fat on the dorsal neck are entered into a randomized double-blind study. Subjects are randomized in 1:1 fashion to receive either Tafluprost, for example, 0.03%, in a suitable transdermal vehicle, or vehicle alone. The vehicle is, for example, Lipoderm® (PCCA, Houston, Tex.). Unit-dose syringes (for example, 0.5 ml per syringe) are furnished to subjects by a study pharmacist; syringes are unlabeled as to the presence of Tafluprost or vehicle. Subjects are instructed to apply, once a day, the contents of one syringe to the affected area on the back of the neck. Serial ultrasound (US) and/or computed tomography (CT) scans are conducted at the beginning of the study and then at monthly intervals. Treatment continues for 6 months.

`CCNC(=O)CCC/C=C\C[C@@H]1[C@@H](/C=C/[C@@H](O)CCc2ccccc2)[C@H](O)C[C@@H]1O` [Bimatoprost]: in experiment [1], the Absolute weight change is recorded as 6.4 g and the Relative weight change is 22.9% over Day 0. Further, the weight gain in experiment [1] (topical) is 23-24 % of baseline body weight. In addition, the “adipose thickness and adipocyte size in histologic sections, compared to Vehicle” value in experiment [2] is on record as “did not show these effects”. For the same compound, in experiment [3], the “inhibition of expression of adipogenic genes PPARγ, C/EBPα and lipoprotein lipase” value is “slightly more inhibition than Tafluprost”. In addition, the adipocyte differentiation with human preadipocytes is 30 % of control.

Turning to `CC(C)OC(=O)CCC/C=C\C[C@@H]1[C@@H](/C=C/C(F)(F)COc2ccccc2)[C@H](O)C[C@@H]1O` [Tafluprost], in experiment [1], the Absolute weight change was −2.4* g and the Relative weight change is −8.2% over Day 0. The weight loss entry in experiment [1] (topical) is recorded as “about 8 % of baseline body weight”. For the same compound, in experiment [2], the “adipose thickness and adipocyte size in histologic sections, compared to Vehicle” value was “reduced adipose thickness and adipocyte size; also recorded: inhibited adipose tissue and adipocytes”. The adipocyte differentiation with human preadipocytes is recorded as 40 % of control. Also, the “reduction in depth and/or cross-sectional area of dorsocervical fat by serial US or CT, compared to vehicle alone” value in the experiment with dorsocervical fat pad is listed as “more reduction in the depth and/or cross-sectional area of dorsocervical fat”.
